Here are results for nine molecules from ChEMBL document CHEMBL1201862, “PubChem BioAssay data set” (2004).

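Cells were grown in 96-well plates and exposed to each compound for 48 hours at five concentrations; endpoints were interpolated linearly between bracketing concentrations, or set to the highest concentration if not reached. GI50 = concentration required for 50% inhibition of growth.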 Calls of active or inactive are those of the source. Rule as the data show it: active = GI50 up to about 1.1 µM and inactive = higher. Where only a bound is given, the exact number is not on record here.

Among the test systems are KM12; SR; A498; HCC 2998; CAKI-1; SF-539; OVCAR-4; NCI-H460; UACC-62; HCT-116; SF-268; SNB-19; SF-295; DMS-273; NCI-H23; MOLT-4; SK-MEL-5.
Common to all, as to experiment: NCI anticancer screen, dose series, 48 h

Regarding `O=C1C=C(Nc2ccccc2C(=O)c2ccccc2)c2ccccc2C1=O`, the GI50 in the assay on KM12 was 33.3 µM (inactive); with SR, 48.1 µM (inactive); with A498, > 100 µM (inactive); with HCC 2998, > 100 µM (inactive); with CAKI-1, > 100 µM (inactive); in the assay with SF-539, > 100 µM (inactive). For the same molecule, the GI50 is 89.3 µM (inactive) in the assay with OVCAR-4; 71 µM (inactive) in the assay with NCI-H460; 8.04 µM (inactive) in the assay on UACC-62; > 100 µM (inactive) in the assay on HCT-116; > 100 µM (inactive) in the assay on SF-268; > 100 µM (inactive) with SNB-19. The GI50 in the assay on SF-295, with DMS-273 and in the assay on NCI-H23 was > 100 µM (inactive) in each case.

With `O=C1c2ccccc2N2OC3(N4CCCC4)CCCCC3C12c1ccccc1` (stereo not given), the GI50 in the assay on SR was 33.8 µM (inactive); in the assay on A498, > 100 µM (inactive); in the assay on HCC 2998, 53 µM (inactive); in the assay on MOLT-4 it was 35.7 µM (inactive); in the assay with SF-539 it was 31.4 µM (inactive); in the assay with OVCAR-4, 14.5 µM (inactive). Also, the GI50 in the assay with UACC-62 was 16.4 µM (inactive); with HCT-116, 14.4 µM (inactive); with SF-268 it was 16.6 µM (inactive); in the assay with SNB-19, > 100 µM (inactive); in the assay with SF-295, 18.3 µM (inactive); in the assay with DMS-273, 17 µM (inactive). Besides, the GI50 with SK-MEL-5 was 15.1 µM (inactive); with NCI-H23 it was 20.1 µM (inactive).

On to `CCn1c2ccccc2c2c(-c3ccccc3)cc3c(c21)C(=O)N(c1ccccc1)C3=O`, for which the GI50 with KM12, with SR, with A498, in the assay on HCC 2998, in the assay with MOLT-4 and with CAKI-1 was > 100 µM (inactive) each time. Also, the GI50 is > 100 µM (inactive) in the assay with SF-539; > 100 µM (inactive) with OVCAR-4; 36.6 µM (inactive) in the assay on NCI-H460; > 100 µM (inactive) in the assay with UACC-62; 95.5 µM (inactive) in the assay with HCT-116; 76.6 µM (inactive) in the assay with SF-268. Moreover, the GI50 is 81.5 µM (inactive) in the assay on SNB-19; > 100 µM (inactive) with SF-295; 46.2 µM (inactive) in the assay on DMS-273; > 100 µM (inactive) in the assay with SK-MEL-5; > 100 µM (inactive) in the assay with NCI-H23.

As to `COC(=O)C1=C(c2cc(OC)c(OC)c(OC)c2)O[C@H](c2ccc3c(c2)OCO3)[C@H]1COC(C)=O`, the GI50 in the assay with KM12 is 20.2 µM (inactive); in the assay with SR, 7.35 µM (inactive); in the assay on A498, 21.4 µM (inactive); in the assay with HCC 2998 it was 18.3 µM (inactive); in the assay with MOLT-4 it was 18.7 µM (inactive); in the assay on CAKI-1, 19.8 µM (inactive). Also, the GI50 in the assay on SF-539 is 26.3 µM (inactive); with OVCAR-4, 29 µM (inactive); in the assay with NCI-H460, 30.5 µM (inactive); with SF-295 it was 6.85 µM (inactive); in the assay on DMS-273 it was 26.6 µM (inactive); in the assay on SK-MEL-5, 9.35 µM (inactive). For the same molecule, the GI50 in the assay on NCI-H23 is 19.1 µM (inactive).

In the case of `CCOC(=O)C(CCCNC(=O)OC(C)(C)C)N(Cc1ccc(OC)cc1OC)C(=O)CC(=O)CP(=O)(OCC)OCC` (stereo not given), the GI50 in the assay with KM12 is > 100 µM (inactive); in the assay with SR it was 42.7 µM (inactive); in the assay on A498, > 100 µM (inactive); with HCC 2998, > 100 µM (inactive); in the assay on MOLT-4, 56.5 µM (inactive); in the assay with CAKI-1 it was > 100 µM (inactive). In addition, the GI50 in the assay with SF-539, with OVCAR-4, with NCI-H460, in the assay on UACC-62, in the assay with HCT-116 and in the assay with SF-268 was > 100 µM (inactive) throughout. For the same molecule, the GI50 in the assay on SNB-19, with SF-295, in the assay on DMS-273, with SK-MEL-5 and in the assay on NCI-H23 was > 100 µM (inactive) in each case.

Consider `O=C(CCc1nnc2s/c(=C\c3ccc(Cl)cc3Cl)c(=O)n12)Nc1cc(Cl)c(Cl)cc1Cl`, for which the GI50 in the assay with KM12 was > 10 µM (inactive); in the assay with SR, > 10 µM (inactive); in the assay on A498, > 10 µM (inactive); in the assay on HCC 2998, > 100 µM (inactive); with MOLT-4, > 10 µM (inactive); in the assay with CAKI-1, > 10 µM (inactive). Moreover, the GI50 in the assay on SF-539, with OVCAR-4, in the assay on NCI-H460, in the assay on UACC-62, in the assay on HCT-116 and in the assay with SF-268 was > 10 µM (inactive) each time. Moreover, the GI50 with SNB-19, with SF-295, in the assay with DMS-273, in the assay with SK-MEL-5 and in the assay on NCI-H23 was > 10 µM (inactive) in each case.

Turning to `COc1ccc(S(=O)(=O)N/N=C/CN2C(=O)c3ccccc3C2=O)cc1`, the GI50 with KM12, in the assay on SR, in the assay with A498, in the assay with HCC 2998, in the assay on MOLT-4 and with CAKI-1 was > 100 µM (inactive) in each case. For the same molecule, the GI50 with SF-539, in the assay on OVCAR-4, in the assay with NCI-H460, in the assay with UACC-62, with SNB-19 and in the assay with SF-295 was > 100 µM (inactive) each time. Further, the GI50 with DMS-273, with SK-MEL-5 and with NCI-H23 was > 100 µM (inactive) each time.

For `CCOC(=O)C(=O)Nc1nc2ccc(C)cc2s1`, the GI50 with KM12, in the assay on SR, with A498, in the assay on HCC 2998, in the assay with MOLT-4 and in the assay with CAKI-1 was > 100 µM (inactive) each time. For the same molecule, the GI50 was 0.995 µM (active) in the assay on SF-539; > 100 µM (inactive) with OVCAR-4; > 100 µM (inactive) in the assay with NCI-H460; > 100 µM (inactive) in the assay on UACC-62; > 100 µM (inactive) in the assay with HCT-116; > 100 µM (inactive) with SF-268. For the same molecule, the GI50 in the assay with SNB-19, with DMS-273, in the assay on SK-MEL-5 and in the assay on NCI-H23 was > 100 µM (inactive) throughout.

For the molecule `COc1cc2noc(-c3ccccc3)c2cc1OC`, the GI50 is 29 µM (inactive) in the assay with KM12; 37 µM (inactive) with SR; 20.2 µM (inactive) in the assay on A498; 58.1 µM (inactive) in the assay with HCC 2998; 26.4 µM (inactive) with MOLT-4; 27.4 µM (inactive) with CAKI-1. Besides, the GI50 was 10.6 µM (inactive) with SF-539; > 100 µM (inactive) in the assay with OVCAR-4; 42.4 µM (inactive) in the assay on NCI-H460; 74.3 µM (inactive) in the assay with UACC-62; 60.1 µM (inactive) in the assay on HCT-116; 54 µM (inactive) in the assay with SF-268. Also, the GI50 is 54 µM (inactive) with SNB-19, 19 µM (inactive) in the assay with SF-295, 39.6 µM (inactive) with DMS-273 and 46.7 µM (inactive) in the assay on SK-MEL-5.
